Source: patent US20230365526A1, “PYRIDAZINE DERIVATIVES FOR MODULATING NUCLEIC ACID SPLICING” (REMIX THERAPEUTICS INC., priority 2020, published 2023)
Where a name gives a salt, the structure may show the parent alone. Read-outs that look alike come from different tables or passages of the source.

Tests used:
Assay type in all cases: cell-based
[1] = tested on: HTT mRNA; assay: RT-qPCR splicing assay monitoring HTT canonical (CJ) and alternative (AJ) junction mRNA in A673 or K562 cells; settings: 24 hours compound treatment, top dose 10 uM
Experimental: (§1) Compounds described herein were used to modulate RNA transcript abundance in cells. The expression of a target mRNA was measured by detecting the formation of an exon-exon junction in the canonical transcript (CJ). A compound mediated exon-inclusion event was detected by observing an increase in formation of a new junction with an alternative exon (AJ). Real-time qPCR assays were used to detect these splicing switches and interrogate the potency of various compounds towards different target genes. A high-throughput real time quantitative PCR (RT-qPCR) assay was developed to measure these two isoforms of the mRNA (CJ and AJ) for an exemplary gene, HTT, together with a control housekeeping gene, GAPDH or GUSB or PPIA, used for normalization. Briefly, the A673 or K562 cell line was treated with various compounds described herein (e.g., compounds of Formula (I)). After treatment, the levels of the HTT mRNA targets were determined from each sample of cell lysate by cDNA synthesis followed by qPCR.
• Cells-to-CT 1-step kit: ThermoFisher A25602, Cells-to-CT lysis reagent: ThermoFisher 4391851C, TaqMan™ Fast Virus 1-Step Master Mix: ThermoFisher 4444436 • GAPDH: VIC-PL, ThermoFisher 4326317E (Assay: Hs99999905_m1)—used for K562/suspension cell lines • GUSB: VIC-PL, ThermoFisher 4326320E (Assay: Hs99999908_m1)—used for K562/suspension cell lines • PPIA: VIC-PL, ThermoFisher 4326316E (Assay: Hs99999904_m1)—used for A673/adherent cell lines
(§2) The A673 cell line was cultured in DMEM with 10% FBS. Cells were diluted with full growth media and plated in a 96-well plate (15,000 cells in 100 ul media per well). The plate was incubated at 37° C. with 5% CO2 for 24 hours to allow cells to adhere. An 11-point 3-fold serial dilution of the compounds was made in DMSO then diluted in media in an intermediate plate. Compounds were transferred from the intermediate plate to the cell plate with the top dose at a final concentration of 10 uM in the well. Final DMSO concentration was kept at or below 0.25%. The cell plate was returned to the incubator at 37° C. with 5% CO2 for an additional 24 hours.
(§3) The K562 cell line was cultured in IMDM with 10% FBS. For K562, cells were diluted with full growth media and plated in either a 96-well plate (50,000 cells in 50 uL media per well) or a 384-well plate (8,000-40,000 cells in 45 uL media per well). An 11-point 3-fold serial dilution of the compounds were made in DMSO then diluted in media in an intermediate plate. Compound was transferred from the intermediate plate to the cell plate with the top dose at a final concentration of 10 uM in the well. Final DMSO concentration was kept at or below 0.25%. Final volume was 100 uL for 96-well plate and 50 uL for 384-well plate. The cell plate was then placed in an incubator at 37° C. with 5% CO2 for 24 hours.
(§4) The cells were then gently washed with 50 uL-100 uL cold PBS before proceeding to addition of lysis buffer. 30 uL-50 uL of room temperature lysis buffer with DNAse I (and optionally RNAsin) was added to each well. Cells were shaken/mixed thoroughly at room temperature for 5-10 minutes for lysis to take place and then 3 uL-5 uL of room temperature stop solution was added and wells were shaken/mixed again. After 2-5 minutes, the cell lysate plate was transferred to ice for RT-qPCR reaction setup. The lysates could also be frozen at −80° C. for later use.
In some cases, a direct lysis buffer was used. An appropriate volume of 3×lysis buffer (10 mM Tris, 150 mM NaCl, 1.5%-2.5% Igepal and 0.1-1 U/uL RNAsin, pH 7.4) was directly added to either K562 or A673 cells in media and mixed by pipetting 3 times. The plates were then incubated at room temperature with shaking/rocking for 20-50 minutes to allow for lysis to take place. After this time, the cell lysate plate was transferred to ice to set up for the RT-qPCR reactions. The lysates could also be frozen at −80° C. for later use. […]

[2] = tested on: HTT; assay: Gene panel canonical junction RT-qPCR assay: HTT; settings: read-out: HTT (IC50, decrease in CJ mRNA levels)
Experimental: as §1, §2, §3, §4
(§5) In some cases, a direct lysis buffer was used. An appropriate volume of 3×lysis buffer (10 mM Tris, 150 mM NaCl, 1.5%-2.5% Igepal and 0.1-1 U/uL RNAsin, pH 7.4) was directly added to either K562 or A673 cells in media and mixed by pipetting 3 times. The plates were then incubated at room temperature with shaking/rocking for 20-50 minutes to allow for lysis to take place. After this time, the cell lysate plate was transferred to ice to set up for the RT-qPCR reactions. The lysates could also be frozen at −80° C. for later use.
(§6) To set up 10 uL RT-qPCR reactions, cell lysates were transferred to 384-well qPCR plates containing the master mix according to the table below. The plates were sealed, gently vortexed, and spun down before the run. The volumes were adjusted accordingly in some instances where the reaction was carried in 20 uL. The table below summarizes the components of the RT-qPCR reactions:
(§7) The RT-qPCR reaction was performed using a QuantStudio (ThermoFisher) under the following fast cycling conditions. […]

[3] = tested on: Target C; assay: Gene panel canonical junction RT-qPCR assay: Target C; settings: read-out: Target C (IC50, decrease in CJ mRNA levels)
Experimental: as §1, §2, §3, §4, §5, §6, §7

[4] = decrease in CJ mRNA, read-out: HTT CJ AC50
[5] = increase in AJ mRNA, read-out: HTT AJ AC50

| Compound | AC50 [1, 4] | AC50 [1, 5] | IC50 [2] | IC50 [3] |
| --- | --- | --- | --- | --- |
| COc1nc(-c2ccc(OC3CC(C)(C)NC(C)(C)C3)nn2)ccc1-c1cnn(C)c1 [Compound 245, 3-[6-methoxy-5-(1-methylpyrazol-4-yl)pyridin-2-yl]-6-[(2,2,6,6-tetramethylpiperidin-4-yl)oxy]pyridazine] | 100 to 1000 nM | 100 to 1000 nM | < 100 nM | 100 to 1000 nM |
| CN(c1ccc(-c2ccc(-c3cn[nH]c3)c(C#N)n2)nn1)[C@@H]1C[C@H]2CC[C@@H](C1)N2 [Compound 262, 6-{6-[(1R,3R,5S)-8-azabicyclo[3.2.1]octan-3-yl(methyl)amino]pyridazin-3-yl}-3-(1H-pyrazol-4-yl)pyridine-2-carbonitrile] | < 100 nM | 100 to 1000 nM | < 100 nM | < 100 nM |
| COc1nc(-c2ccc(N(C)C3CC(C)(C)NC(C)(C)C3)nn2)ccc1-c1cn[nH]c1 [Compound 246, 6-[6-methoxy-5-(1H-pyrazol-4-yl)pyridin-2-yl]-N-methyl-N-(2,2,6,6-tetramethylpiperidin-4-yl)pyridazin-3-amine] | < 100 nM | 100 to 1000 nM | < 100 nM | 100 to 1000 nM |
| COc1nc(-c2ccc(OC3CC(C)(C)NC(C)(C)C3)nn2)ccc1-n1cccn1 [Compound 271, bis(3-[6-methoxy-5-(pyrazol-1-yl)pyridin-2-yl]-6-[(2,2,6,6-tetramethylpiperidin-4-yl)oxy]pyridazine)] | 1000 to 10000 nM | 1000 to 10000 nM | 1000 to 10000 nM | 1000 to 10000 nM |
| COc1nc(-c2ccc(OC3CC(C)(C)NC(C)(C)C3)nn2)ccc1-c1cnn(C)n1 [Compound 258, 3-[6-methoxy-5-(2-methyl-1,2,3-triazol-4-yl)pyridin-2-yl]-6-[(2,2,6,6-tetramethylpiperidin-4-yl)oxy]pyridazine] | 100 to 1000 nM | 1000 to 10000 nM | 100 to 1000 nM | 1000 to 10000 nM |
| COc1nc(-c2ccc(N(C)[C@@H]3C[C@H]4CC[C@@H](C3)N4)nn2)cc(F)c1-c1cn[nH]c1 [Compound 268, (exo)-N-{6-[4-fluoro-6-methoxy-5-(1H-pyrazol-4-yl)pyridin-2-yl]pyridazin-3-yl}-N-methyl-8-azabicyclo[3.2.1]octan-3-amine] | < 100 nM | < 100 nM | < 100 nM | < 100 nM |
| CN(c1ccc(-c2ccc(-c3cn[nH]c3)c(C(F)(F)F)n2)nn1)[C@@H]1C[C@H]2CC[C@@H](C1)N2 [Compound 236] | > 10000 nM | > 10000 nM | > 10000 nM | > 10000 nM |
| C[C@@H]1C[C@H](N(C)c2ccc(-c3ccc(-c4cn[nH]c4)c(=O)[nH]3)nn2)CCN1 [Compound 126, 6-(6-[methyl[(2R,4R)-2-methylpiperidin-4-yl]amino]pyridazin-3-yl)-3-(1H-pyrazol-4-yl)-1H-pyridin-2-one] | > 10000 nM | > 10000 nM | – | – |
| COc1nc(-c2ccc(NC3CCNCC3)nn2)ccc1-n1cccn1 [Compound 288, 6-[6-methoxy-5-(pyrazol-1-yl)pyridin-2-yl]-N-(piperidin-4-yl) pyridazin-3-amine] | > 10000 nM | > 10000 nM | > 10000 nM | > 10000 nM |
| CCOc1nc(-c2ccc(N(C)[C@@H]3C[C@H]4CC[C@@H](C3)N4)nn2)ccc1-c1cn[nH]c1 [Compound 261, (1R,3R,5S)—N-{6-[6-ethoxy-5-(1H-pyrazol-4-yl)pyridin-2-yl]pyridazin-3-yl}-N-methyl-8-azabicyclo[3.2.1]octan-3-amine] | < 100 nM | < 100 nM | < 100 nM | < 100 nM |
| COc1nc(-c2ccc(N(C)C3CC(C)(C)NC(C)(C)C3)nn2)ccc1-c1cnn(C)n1 [Compound 259] | 100 to 1000 nM | 1000 to 10000 nM | 100 to 1000 nM | 100 to 1000 nM |
| CC(C)Oc1nc(-c2ccc(N(C)[C@@H]3C[C@H]4CC[C@@H](C3)N4)nn2)ccc1-c1cn[nH]c1 [Compound 284, (1R,3R,5S)—N-{6-[6-isopropoxy-5-(1H-pyrazol-4-yl)pyridin-2-yl]pyridazin-3-yl}-N-methyl-8-azabicyclo[3.2.1]octan-3-amine] | < 100 nM | 1000 to 10000 nM | < 100 nM | 100 to 1000 nM |
| CN(c1ccc(-c2ccc(-c3cn[nH]c3)c(OC3CC3)n2)nn1)[C@@H]1C[C@H]2CC[C@@H](C1)N2 [Compound 286, (1R,3R,5S)—N-{6-[6-cyclopropoxy-5-(1H-pyrazol-4-yl)pyridin-2-yl]pyridazin-3-yl}-N-methyl-8-azabicyclo[3.2.1]octan-3-amine] | < 100 nM | < 100 nM | < 100 nM | < 100 nM |
| COc1nc(-c2ccc(N(C)C3CC(C)(C)NC(C)(C)C3)nn2)ccc1-n1cccn1 [Compound 272, 6-[6-methoxy-5-(pyrazol-1-yl)pyridin-2-yl]-N-methyl-N-(2,2,6,6-tetramethylpiperidin-4-yl) pyridazin-3-amine] | 100 to 1000 nM | 100 to 1000 nM | 1000 to 10000 nM | 1000 to 10000 nM |
| COc1nc(-c2ccc(N(C)[C@@H]3C[C@H]4CC[C@@H](C3)N4)nn2)ccc1-c1cnn(C)c1 [Compound 287, (1R,3s,5S)-N-(6-(6-methoxy-5-(1-methyl-1H-pyrazol-4-yl)pyridin-2-yl)pyridazin-3-yl)-N-methyl-8-azabicyclo [3.2.1] octan-3-amine] | < 100 nM | 100 to 1000 nM | < 100 nM | < 100 nM |
| COc1nc(-c2ccc(N(C)[C@@H]3C[C@H]4CC[C@@H](C3)N4)nn2)cnc1-c1cn[nH]c1 [Compound 260, (1R,3R,5S)—N-{6-[6-methoxy-5-(1H-pyrazol-4-yl)pyrazin-2-yl]pyridazin-3-yl}-N-methyl-8-azabicyclo [3.2.1] octan-3-amine hydrochloride] | 100 to 1000 nM | 100 to 1000 nM | < 100 nM | < 100 nM |
| CN(c1ccc(-c2ccc(-c3cn[nH]c3)c(=O)[nH]2)nn1)[C@@H]1C[C@H]2CC[C@@H](C1)N2 [Compound 129, 6-[6-[(1R,3S,5S)-8-azabicyclo[3.2.1]octan-3-yl(methyl)amino]pyridazin-3-yl]-3-(1H-pyrazol-4-yl)-1H-pyridin-2-one] | 1000 to 10000 nM | 1000 to 10000 nM | – | – |
| COc1nc(-c2ccc(N(C)[C@H]3CCN[C@@H](C)C3)nn2)ccc1-n1cccn1 [Compound 135, 6-[6-methoxy-5-(pyrazol-1-yl)pyridin-2-yl]-N-methyl-N-[(2S,4S)-2-methylpiperidin-4-yl]pyridazin-3-amine] | > 10000 nM | > 10000 nM | > 10000 nM | < 100 nM |
